Data from patent US20220133747A1, “ESTROGEN RECEPTOR INHIBITORS AND USES THEROF” (The Regents of the University of California, priority 2018, published 2022).
“Also recorded” adds a separate entry of the source.

Key:
[1] = clinic; cited from earlier work
MCF-7/HER2 cells = assay: Cell proliferation assay, MCF-7 with HER2-overexpression; format: cell-based, human; conditions: MCF-7/HER2, 10 nM with 2 nM estradiol-17β, 48 hr
ZR75 cells = assay: Cell proliferation assay, ZR75; format: cell-based, human; conditions: ZR75, 10 nM with 2 nM estradiol-17β, 48 hr
T47D cells = assay: Cell proliferation assay, T47D; format: cell-based, human; conditions: 10 nM with 2 nM estradiol-17β, 48 hr
STAT3 = assay: Phosphorylated STAT3 in G-MDSC subpopulations, flow cytometry; format: cell-based, human; conditions: 1 μM in normal medium with GM-CSF and IL6, 6 days
Description: Bone marrow cells from three breast cancer patients were incubated with GM-CSF and IL6 in the following groups: normal medium (contains estradiol) in the presence of vehicle (CON), 1 μM fulvestrant (FULV) or 1 μM S128. After 6 days, cells were subjected to flow cytometry using an antibody directed to phosphorylated STAT3 (p-STAT; 1).
FIGS. 22A-22B show expansion of MDSCs is dependent on estrogen signaling and reversed by antiestrogens. […] Retrospectively-collected BM cells from de-identified BC patients were purified by established methods including red blood cell lysis and Ficoll gradients and then incubated with GM-CSF and IL-6 for 6 days in either regular RPMI medium+15% FBS (NM) (contains estrogens), NM with antiestrogens (FULV or SERD128) or in phenol red-free medium with 15% charcoal coated-dextran treated FBS (EFM) (estrogen-depleted) with or without the addition of 100 nM estradiol-17β (EFM+E2). […]
Human myeloid-derived suppressor cells were expanded from bone marrow (BM) specimens of BC patients after standard Ficoll gradient purification and red blood cell lysis. […] After 6 days of culture, cells were harvested, stained with a 14 antibody panel including anti-phospho-STAT3 (pSTAT3) and analyzed by flow cytometry with an LSRII with a 5 lasers (UV, violet, blue, green-yellow and red). […]

[2] = tested on: MCF-7 human breast tumor xenografts; assay: MCF-7 human breast tumor xenografts in nude mice; format: in vivo; conditions: 15 and 75 mg/kg once a day by oral gavage for 28 days
[3] = Screen of SERD candidates in antitumor assays, comparison with fulvestrant; conditions: a number of antitumor assays
From the text: We designed, synthesized and screened more than 65 new SERD candidates, all of which have the general structure shown in 1′, namely 11β-aryloxy estradiols, with a basic amine positioned at the 4-position of the aryl ring (FIG. 16). The basic amine is connected to the aryl unit either directly or via a spacer that varies from 3-6 atoms. […] We note that this new class of steroid-like SERDs lack the prototypical side chain (as in fulvestrant) widely used to design other drugs with ERα antagonism, but these SERD candidates generate a full antagonist profile and induce significant ERα down-regulation, likely similar to significant ‘indirect’ receptor antagonism as reported in previous independent studies of 11β-substitutions in ERα [51, 52] and other structural changes as in an independent report.

ERα = target: T1, ERα (Homo sapiens, UniProt P03372); assay: Downregulation of ER protein, PAGE and Western immunoblot in MCF-7 cells; format: cell-based; conditions: 100 nM, 4 hours, phenol-red free medium without FBS
T1 construct: endogenous in cells; host or cells: MCF-7 human breast cancer cells (ATCC)
T1 sequence (P03372 1-595): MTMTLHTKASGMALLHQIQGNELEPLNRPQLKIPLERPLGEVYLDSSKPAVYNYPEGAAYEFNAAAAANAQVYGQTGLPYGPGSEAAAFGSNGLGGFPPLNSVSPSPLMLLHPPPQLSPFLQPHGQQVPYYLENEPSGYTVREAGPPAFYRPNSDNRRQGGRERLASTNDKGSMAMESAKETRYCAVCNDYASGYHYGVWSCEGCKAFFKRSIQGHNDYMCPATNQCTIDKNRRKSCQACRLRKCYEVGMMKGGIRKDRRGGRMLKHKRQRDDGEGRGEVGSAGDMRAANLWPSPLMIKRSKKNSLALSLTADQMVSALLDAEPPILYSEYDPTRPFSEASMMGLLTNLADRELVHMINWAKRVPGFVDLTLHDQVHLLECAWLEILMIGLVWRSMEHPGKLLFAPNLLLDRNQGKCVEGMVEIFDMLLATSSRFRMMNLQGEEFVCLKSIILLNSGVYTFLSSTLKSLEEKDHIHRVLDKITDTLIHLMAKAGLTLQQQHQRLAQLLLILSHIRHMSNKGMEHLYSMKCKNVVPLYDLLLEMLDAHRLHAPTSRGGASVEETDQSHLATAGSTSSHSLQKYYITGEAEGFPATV
Description: FIGS. 20A-20C show biologic activity of selected SERD candidates. […] ER-positive MCF-7 cells were treated in phenol-red free RPMI 1640 without FBS and containing vehicle control (CON) or 100 nM concentrations of either fulvestrant (FX) or antiestrogens 105, 109, 121, 140, 151, 160 or SERD128 in vitro. After 4 hours, cells were harvested and processed for PAGE and Western immunoblots using ERα antibody (1D5, Thermofisher Scientific). RPL13A was used as a loading control. […] Cells were dosed with either E2 alone or with SERDs combined with E2 in phenol redfree medium with 0.1% dextran-coated charcoal-treated FBS in luminometer plates. Data are presented as relative light units (RLU) relative to that of E2 alone in three replicate assays (4 wells per replicate) f SEM. Treatment with E2 alone induced a 12-fold induction of ER-dependent luciferase activity quantified as RLU relative to vehicle control-treated samples.
MCF7 cells were plated in regular medium. After 24 hrs, cells were incubated in the presence of antiestrogens or fulvestrant for 4 hrs in phenol-red free medium without FBS. Cell lysates were prepared using RIPA buffer, and protein concentration was determined using the BCA Protein Assay Kit (PIERCE/ThermoFisher Scientific). Forty micrograms of total cell protein was resolved by 4-15% SDS-PAGE, transferred to a PVDF membrane and probed with antibody directed against ERα (1D5, 1:100, ThermoFisher cat #MA5-13191). RPL13A (dilution 1:1000, Invitrogen/ThermoFisher cat #PA5-58528) was used as loading control.

| SMILES | bioavailability [1] | cell proliferation (% of estradiol-treated controls) (MCF-7/HER2 cells) | cell proliferation (% of estradiol-treated controls) (ZR75 cells) | cell proliferation (% of estradiol-treated controls) (T47D cells) | p-STAT3 median fluorescence intensity in G-MDSC (STAT3) | p-STAT3 median fluorescence intensity in G-MDSC (STAT3; listed as S128) | tumor growth (tumor volume) [2] | activity relative to fulvestrant [3] | downregulation of ER protein (ERα protein levels) (ERα) | downregulation of ER protein (ERα protein levels) (ERα; listed as 128) |
| --- | --- | --- | --- | --- | --- | --- | --- | --- | --- | --- |
| C[C@]12CC[C@@H]3c4ccc(O)cc4C[C@@H](CCCCCCCCC[S+]([O-])CCCC(F)(F)C(F)(F)F)[C@H]3[C@@H]1CC[C@@H]2O (stereo partly shown) [fulvestrant, reference compound] | very low bioavailability |  |  |  |  |  |  |  |  |  |
| C[C@]12C[C@H](Oc3ccc(N)c(C(F)(F)F)c3)[C@@H]3c4ccc(O)cc4CC[C@H]3[C@@H]1CC[C@@H]2O [SERD128, (8S,9S,11S,13S,14S,17S)-11-(4-Amino-3-(trifluoromethyl)phenoxy)-13-methyl-7,8,9,11,12,13,14,15,16,17-decahydro-6H-cyclopenta[a]phenanthrene-3,17-diol] |  | significantly blocked proliferation; also recorded: antiproliferative action | significantly blocked proliferation; also recorded: significantly inhibited | significantly blocked proliferation; also recorded: significantly inhibited | blocks phosphorylation/activation of STAT3; also recorded: especially effective in blocking the phosphorylation and activation of STAT3 | blocks phosphorylation/activation of STAT3; also recorded: inhibits the STAT signaling pathway | inhibits growth of human breast tumor xenografts in vivo; also recorded: significantly inhibited tumor growth in MCF-7 xenograft models in a dose-dependent manner; also recorded: inhibit the growth of human MCF-7 breast tumor xenografts in vivo in a dose-dependent manner; also recorded: potent biologic action in blocking the progression of breast tumors in vivo via an oral route of administration | more potent than fulvestrant | comparable to that of the pure antiestrogen fulvestrant | most effective in reducing ER protein levels; also recorded: comparable to that of fulvestrant |
